Data reported in ChEMBL document CHEMBL3751691, “A Journey around the Medicinal Chemistry of Hepatitis C Virus Inhibitors Targeting NS4B: From Target to Preclinical Drug Candidates” (J Med Chem, 2016).
Blank lines part the entries; values can stand above or below the compound they belong to.

How the values were obtained:
[1] = Binding affinity to […] by fluorescence assay; design: species or system Hepacivirus hominis
Hepatitis C virus [2] = assay: Antiviral activity against HCV genotype 1b infected in human Huh7 cells assessed as inhibition of viral replication after 72 hrs by ELISA; type: functional, organism-based, Hepacivirus hominis; conditions: Huh-7, 72 h
Hepatitis C virus [3] = assay: Antiviral activity against HCV genotype 1b infected in human Huh7 cells assessed as inhibition of viral replication by luciferase reporter-based viral replicon assay; type: functional, organism-based, Hepacivirus hominis; conditions: Huh-7
Hepatitis C virus [4] = assay: Antiviral activity against HCV genotype 1b infected in Huh7.5 cells assessed as inhibition of viral replication at 72 hrs by luciferase reporter-based viral replicon assay; type: functional, organism-based, Hepacivirus hominis; conditions: Huh7.5, 72 h
Hepatitis C virus [5] = assay: Antiviral activity against HCV genotype 1b infected in human Huh7.5 cells assessed as inhibition of viral replication after 24 hrs by renilla luciferase reporter-based viral replicon assay; type: functional, organism-based, Hepacivirus hominis; conditions: Huh-7, 24 h
[6] = Cytotoxicity against human Huh7.5 cells infected with HCV genotype 1b after 24 hrs by Cell Titer-Glo assay; type: cell-based, Huh-7
Hepatitis C virus [7] = assay: Antiviral activity against HCV genotype 1a infected in Huh7.5 cells assessed as inhibition of viral replication after 24 hrs by renilla luciferase reporter-based viral replicon assay; type: functional, organism-based, Hepacivirus hominis; conditions: subtype 1a, Huh7.5, 24 h
[8] = Binding affinity to HCV NS4B […] by quantitative PCR analysis; design: species or system Hepacivirus hominis
Hepatitis C virus [9] = assay: Antiviral activity against HCV genotype 1a (H77) infected in human Huh7 cells assessed as inhibition of viral replication by luciferase reporter-based viral replicon assay; type: functional, organism-based, Hepacivirus hominis; conditions: genotype 1a H77, Huh-7
[10] = Cytotoxicity against human HuH7 cells by Cell Titer-Glo assay; type: cell-based, Huh-7
Hepatitis C virus [11] = assay: Antiviral activity against HCV infected in human HuH7 cells assessed as inhibition of viral replication after 72 hrs by ELISA-based viral replicon assay; type: functional, organism-based, Hepacivirus hominis; conditions: Huh-7, 72 h
Hepatitis C virus [12] = assay: Antiviral activity against HCV genotype 1a infected in Huh7 cells assessed as inhibition of viral replication after 48 hrs by luciferase reporter-based viral replicon assay; type: functional, organism-based, Hepacivirus hominis; conditions: subtype 1a, Huh-7, 48 h
Hepatitis C virus [13] = assay: Antiviral activity against HCV genotype 1b infected in Huh7 cells assessed as inhibition of viral replication after 48 hrs by luciferase reporter-based viral replicon assay; type: functional, organism-based, Hepacivirus hominis; conditions: Huh-7, 48 h
[14] = Cytotoxicity against human HuH7 cells infected with HCV after 72 hrs by crystal violet-based assay; type: cell-based; conditions: huh-7, 72 h
[15] = Cytotoxicity against human HuH7 cells infected with HCV genotype 1b after 48 hrs by WST-1 assay; type: cell-based, Huh-7
[16] = Ratio of plasma concentration in CRL-CD-BR rat at 8 hrs to EC50 for antiviral activity against HCV genotype 1b; type: ADME, cell-free
[17] = Ratio of plasma concentration in beagle dog at 8 hrs to EC50 for antiviral activity against HCV genotype 1b; type: ADME, cell-free
[18] = Ratio of plasma concentration in cynomolgus monkey at 8 hrs to EC50 for antiviral activity against HCV genotype 1b; type: ADME, cell-free
[19] = Ratio of drug level in liver to plasma in CRL-CD-BR rat; type: ADME, cell-free
[20] = Ratio of drug level in brain to plasma in CRL-CD-BR rat; type: ADME, cell-free; conditions: read-out: BPR
Hepatitis C virus [21] = assay: Antiviral activity against HCV genotype 2a (JFH-1) infected in human Huh7 cells assessed as inhibition of viral replication by luciferase reporter-based viral replicon assay; type: functional, organism-based, Hepacivirus hominis; conditions: JFH-1, Huh-7
Hepatitis C virus [22] = assay: Antiviral activity against HCV genotype 2b infected in human Huh7 cells assessed as inhibition of viral replication by luciferase reporter-based viral replicon assay; type: functional, organism-based, Hepacivirus hominis; conditions: Huh-7
Hepatitis C virus [23] = assay: Antiviral activity against HCV genotype 3a infected in human Huh7 cells assessed as inhibition of viral replication by luciferase reporter-based viral replicon assay; type: functional, organism-based, Hepacivirus hominis; conditions: Huh-7
Hepatitis C virus [24] = assay: Antiviral activity against HCV genotype 4a infected in human Huh7 cells assessed as inhibition of viral replication by luciferase reporter-based viral replicon assay; type: functional, organism-based, Hepacivirus hominis; conditions: Huh-7
Hepatitis C virus [25] = assay: Antiviral activity against HCV genotype 5a infected in human Huh7 cells assessed as inhibition of viral replication by luciferase reporter-based viral replicon assay; type: functional, organism-based, Hepacivirus hominis; conditions: Huh-7
Hepatitis C virus [26] = assay: Antiviral activity against HCV genotype 6a infected in human Huh7 cells assessed as inhibition of viral replication by luciferase reporter-based viral replicon assay; type: functional, organism-based, Hepacivirus hominis; conditions: Huh-7
Hepatitis C virus [27] = assay: Antiviral activity against HCV genotype 6o infected in human Huh7 cells assessed as inhibition of viral replication by luciferase reporter-based viral replicon assay; type: functional, organism-based, Hepacivirus hominis; conditions: subtype 6, Huh-7

Structure (SMILES): CC(C)C[C@H]1CN(C(=O)/C=C/c2ccccc2)[C@@H](CC(C)C)C(=O)N1
- EC90 (Hepatitis C virus [3]): 2300 nM

Structure (SMILES): O=C(NCc1cccs1)c1nn2c(c1Cl)N[C@H](c1ccco1)C[C@@H]2C(F)(F)F
- EC50 (Hepatitis C virus [5]): 630 nM
- CC50 at 24 h [6]: > 100000 nM
- EC50 (Hepatitis C virus [7]): 620 nM

Structure (SMILES): CC(C)C[C@H]1CN(C(=O)[C@@H]2C[C@H]2c2ccccc2)[C@@H](CC(C)C)CN1
- EC90 (Hepatitis C virus [3]): > 10000 nM

Structure (SMILES): CC[C@H]1C(=O)N[C@@H](CC(C)C)CN1C(=O)[C@@H]1C[C@H]1c1ccccc1
- EC90 (Hepatitis C virus [3]): > 10000 nM

Structure (SMILES): CC(C)c1ccc(NC(=O)c2ccccc2)cc1
- Kd [1]: 6900 nM
- EC50 (Hepatitis C virus [2]): 2800 nM

Structure (SMILES): O=C(NCc1cccs1)c1cc2nc(-c3ccco3)cc(C(F)(F)Cl)n2n1 [ANGUIZOLE]
- Kd [1]: 662 nM
- EC50 (Hepatitis C virus [11]): 630 nM
- EC50 (Hepatitis C virus [12]): 560 nM
- EC50 (Hepatitis C virus [13]): 310 nM
- CC75 [14]: > 100000 nM
- CC50 at 48 h [15]: > 50000 nM

Structure (SMILES): CC(C)C[C@H]1CN(C(=O)c2coc(-c3ccccc3)n2)[C@@H](CC(C)C)C(=O)N1
- EC90 (Hepatitis C virus [3]): > 10000 nM

Structure (SMILES): CCc1cc2c(cc1F)c(C#N)c(-c1ccc(S(=O)(=O)N[C@@H](C)C(F)(F)F)cn1)n2-c1ncccn1
- Ratio [16]: 325
- Ratio [17]: 460
- Ratio [18]: 50
- Kp [19]: 25
- Kp [20]: 0.22

Structure (SMILES): CCC[C@H]1CN(C(=O)[C@@H]2C[C@H]2c2ccccc2)[C@@H](CC(C)C)C(=O)N1
- EC90 (Hepatitis C virus [3]): 900 nM

Structure (SMILES): O=C(NCc1cccs1)c1nn2c(c1Cl)NC(c1ccco1)CC2C(F)(F)F (racemic)
- EC50 (Hepatitis C virus [5]): 1780 nM
- CC50 at 24 h [6]: > 100000 nM

Structure (SMILES): CC(C)C[C@H]1CN(C(=O)c2noc(-c3ccccc3)n2)[C@@H](CC(C)C)C(=O)N1
- EC90 (Hepatitis C virus [3]): 1400 nM

Now from value to compound, other results behind:

- Kd [1]: 300 nM
- EC50 (Hepatitis C virus [2]): 870 nM
Structure (SMILES): CC(C)(C)c1ccc(C(=O)Nc2sc3c(c2C(N)=O)CCCC3)cc1

- EC90 (Hepatitis C virus [3]): > 10000 nM
Structure (SMILES): CC(C)C[C@H]1CN(C(=O)c2cccc(-c3ccccc3)c2)[C@@H](CC(C)C)C(=O)N1

- EC50 (Hepatitis C virus [4]): 1800 nM
Structure (SMILES): Clc1ccc(Cn2c(/C=C/C3CCN(CC4CCCCC4)C3)nc3cc(Br)ccc32)cc1 (stereo not drawn)

- EC90 (Hepatitis C virus [3]): > 10000 nM
Structure (SMILES): CC(C)C[C@H]1CN(C(=O)c2cc(-c3ccccc3)[nH]n2)[C@@H](CC(C)C)C(=O)N1

- EC50 (Hepatitis C virus [4]): 3300 nM
Structure (SMILES): C[C@H]1CCCN1CCCOc1nn(Cc2ccc(Cl)cc2)c2ccc(-c3ccc(N4CCOCC4)nc3)cc12

- EC90 (Hepatitis C virus [3]): 100 nM
Structure (SMILES): CCC[C@H]1CN(C(=O)c2cc(-c3ccc(F)cc3)on2)[C@@H](CC(C)C)C(=O)N1

- EC50 (Hepatitis C virus [3]): 172 nM
- Kd [8]: 52.9 nM
- EC50 (Hepatitis C virus [9]): 2200 nM
Structure (SMILES): O=C(c1ccccc1)N1CCC2(CCCN(c3ncc(Br)c(-c4ccc(Cl)cc4)n3)C2)CC1
- CC50 [10]: 38700 nM

- EC90 (Hepatitis C virus [3]): 130 nM
Structure (SMILES): CC(C)C[C@H]1CN(C(=O)c2cc(-c3ccc(F)cc3)on2)[C@@H](CC(C)C)C(=O)N1

- EC50 (Hepatitis C virus [3]): 20 nM
- Kd [8]: 45.8 nM
- EC50 (Hepatitis C virus [9]): 800 nM
- EC50 (Hepatitis C virus [21]): 7600 nM
- EC50 (Hepatitis C virus [22]): 2200 nM
- EC50 (Hepatitis C virus [23]): 43.8 nM
- EC50 (Hepatitis C virus [24]): 200 nM
- EC50 (Hepatitis C virus [25]): 26.6 nM
- EC50 (Hepatitis C virus [26]): 800 nM
- EC50 (Hepatitis C virus [27]): 9500 nM
Structure (SMILES): O=C(c1ccccc1)N1CCC2(CCCN(c3ncc(-c4ccccc4)c(-c4ccc(Cl)cc4)n3)C2)CC1
- CC50 [10]: > 43000 nM

- EC90 (Hepatitis C virus [3]): > 10000 nM
Structure (SMILES): COC[C@H]1CN(C(=O)c2cc(-c3ccc(F)cc3)on2)[C@@H](CC(C)C)C(=O)N1

- EC90 (Hepatitis C virus [3]): 1100 nM
Structure (SMILES): CC(C)C[C@H]1CN(C(=O)c2cc(-c3ccccc3)on2)[C@@H](CC(C)C)C(=O)N1

- EC90 (Hepatitis C virus [3]): 290 nM
Structure (SMILES): CC(C)C[C@H]1CN(C(=O)c2cc(-c3ccc(Cl)cc3)on2)[C@@H](CC(C)C)C(=O)N1

- Kd [1]: 1700 nM
- EC50 (Hepatitis C virus [2]): 1500 nM
Structure (SMILES): COc1ccc(Cl)cc1Nc1nc(-c2cccnc2)cs1

- EC90 (Hepatitis C virus [3]): 60 nM
Structure (SMILES): CC(C)C[C@H]1C(=O)N[C@@H](c2ccccc2)CN1C(=O)c1cc(-c2ccc(F)cc2)on1
